The series can be described thus: solubility of compounds having formula (VII) in ethyl acetate. The note with it: organic solvent or mixture.

Broadly, the solubility is the concentration that dissolves in the medium under given conditions.

Molecules are shown by their SMILES. Values after ≈ are worked out from the molar mass of the structure shown.

In the case of `CCOC(=O)c1cn(-c2nc(N)c(F)cc2F)c2cc(N3CC(OC(=O)C(C)C)C3)c(F)cc2c1=O` [CH(CH3)2, ethyl 1-(6-amino-3,5-difluoropyridin-2-yl)-6-fluoro-7-(3-(isobutyryloxy)azetidin-1-yl)-4-oxo-1,4-dihydroquinoline-3-carboxylate], the solubility was found to be 6400 µg/mL (≈ 12.7 mM).

The values are drawn from patent US8927723B2, “Preparation of pyridonecarboxylic acid antibacterials” (AbbVie, Inc., priority 2004, dated 2015).
